Laboratory results published in article PMC12441774, “Proteolytic stabilization of a spider venom peptide results in an orally active bioinsecticide” (Pest Management Science, 2025).
Bridges are numbered along the chain shown (N, C = ends). Where no end group is shown, it is not given here.

Columns and labels:
Helicoverpa zea = experiment: Insecticidal activity by injection into fourth instar larvae; type: in vivo; conditions: fourth instar larvae, 1 μL into penultimate proleg, mortality 24 h after injection, eight larvae per treatment, at least triplicate
Procedure: Helicoverpa zea (Boddie, 1850) larvae were reared from eggs (Benzon, Carlisle, PA) to fourth instar on general purpose lepidopteran diet (F9772, Frontier Agricultural Sciences, Newark, DE). Pre‐weighed larvae immobilized on ice were injected into their penultimate proleg as described for M. domestica with 1 μL solution and eight larvae per treatment in at least triplicate. After injection, larvae were placed in a well of a 32‐well tray filled with 5 mL lepidopteran diet. The trays were then placed in an incubator at 28° C with 16:8 h light: dark cycle and evaluated 24 h after injection for mortality.
(§1) To compare the potency of Ta1b, we also injected the following active ingredients into M. domestica and H. zea: GS‐ω/κ (Spear, Vestaron), spinosad (Monterey Garden Insect Spray, Monterey), thiamethoxam (Optigard® Flex, Syngenta), and chlorantraniliprole (ALTACOR®, FMC).

Musca domestica = experiment: Insecticidal activity by injection into adult house flies; type: in vivo; conditions: adult house flies 12–18 mg, 0.5 μL into dorsal thorax, mortality 24 h post‐injection, 10 flies per treatment, at least triplicate, four‐parameter sigmoidal fit
Procedure: Adult house flies (Musca domestica L.) were immobilized with CO2 gas and those with an average weight of 12–18 mg were selected for injection. Purified solutions of Ta1b and variants were diluted in water and injected into the dorsal thorax with a 1‐cc syringe and 30‐gauge needle using a hand microapplicator (Burkard, Rickmansworth, England). Each adult was injected with 0.5 μL of solution with 10 flies per treatment in at least triplicate. Water was used as a negative control. Flies were placed into a container with moist filter paper and scored for mortality 24 h post‐injection. Ten non‐injected flies were placed in a container to assess CO2 mortality. Response curves were fitted with a four‐parameter sigmoidal function (GraphPad Prism, Boston, MA) to determine LD50 values.
as §1

bovine trypsin = target: T1, bovine trypsin (Bos taurus, UniProt P00760); experiment: Protease stability, commercial trypsin digestion; type: in vitro ADME; conditions: for Degradation half time ratio to Ta1b, Trypsin: ratio of half lives with bovine trypsin
T1 construct: purchased Sigma-Aldrich
T1 sequence (P00760 24-246): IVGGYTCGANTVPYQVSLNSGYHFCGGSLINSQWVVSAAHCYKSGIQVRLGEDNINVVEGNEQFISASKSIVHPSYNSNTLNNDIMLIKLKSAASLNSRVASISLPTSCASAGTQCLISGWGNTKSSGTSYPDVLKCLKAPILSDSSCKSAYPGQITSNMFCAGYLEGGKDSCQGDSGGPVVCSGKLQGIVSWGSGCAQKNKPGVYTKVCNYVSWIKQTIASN
Procedure: (§2) For commercial enzyme digestion studies, bovine trypsin (Sigma‐Aldrich, St. Louis, MO) was prepared at a concentration of 1 mg mL^−1 in 50 mM Tris–HCl pH 8.8, 100 mM NaCl. Bovine chymotrypsin (Sigma‐Aldrich) was prepared at a concentration of 1 mg ml^−1 in 50 mM MES pH 6.0, 100 mM NaCl. For each digestion condition, 5 μL of trypsin or chymotrypsin solution were added to 200 μL of 10.7 mg mL^−1 peptide and incubated at room temperature. Samples were taken at defined timepoints, sterile filtered, and analyzed immediately by HPLC.

[1] = Protease stability, commercial trypsin digestion; type: in vitro ADME, bovine; conditions: bovine trypsin 1 mg mL^−1 in 50 mM Tris–HCl pH 8.8, 100 mM NaCl; 5 μL added to 200 μL of 10.7 mg mL^−1 peptide; room temperature; HPLC; read-out: Degradation half life, Trypsin
Procedure: as §2

[2] = Gut enzyme digestion, M. sexta gut extract; type: in vitro ADME, Manduca sexta; conditions: for half-life: M. sexta fifth instar gut extract diluted 10× in 30 mM Tris–HCl pH 8.8, 0.5–1 mg mL^−1 peptide, HPLC, single exponential decay fit, read-out: Degradation half life, Gut extract; for Degradation half time ratio to Ta1b, Gut extract: ratio of half lives in M. sexta gut extract; for Fold stability improvement over Ta1b: gut extract stability testing, limit of testing 50‐fold
Procedure: (§3) Larvae of H. zea, Spodoptera frugiperda Smith and Abbot, 1797, and Trichoplusia ni Hubner, 1802 were purchased from Benzon Research and reared to fifth instar on general purpose lepidopteran diet. Manduca sexta L. were purchased from Carolina Biological Supply (Burlington, NC) and reared to fifth instar on the supplied diet. Larvae were anesthetized on ice for 30 min, pinned on a dissection plate, and opened laterally with microdissection scissors. The foregut, midgut and hindgut were excised and washed using sterile water to remove any excess hemolymph and then transferred into a chilled 2‐mL microcentrifuge tube. The extracts were spun in a microcentrifuge at 10000 g to pellet the solids. The liquid fractions were carefully removed, sterile filtered, and stored at −80°C for future use.
(§4) For gut enzyme digestion studies, gut extract was diluted 10× with the dilution buffer (30 mM Tris–HCl, pH 8.8) and 0.5–1 mg mL^−1 of Ta1b. Samples were taken from the digestion mixture at defined timepoints and mixed with a 1:6 ratio of stop buffer (Tris–HCl pH 1–2) to halt further digest of the peptide. Samples were sterile filtered and analyzed by HPLC to determine peptide integrity and concentration.

[3] = Gut enzyme digestion, H. zea gut extract; type: in vitro ADME, Helicoverpa zea; conditions: extract diluted ten-fold, single exponential decay fit, HPLC
Procedure: as §3, §4

[4] = Gut enzyme digestion, stated jointly for three lepidopteran gut extracts; type: in vitro ADME, H. zea, S. frugiperda, T. ni; conditions: 10‐fold diluted gut extract, single exponential decay, followed up to 21 h
Procedure: as §3, §4

[5] = Gut enzyme digestion, T. ni gut extract; type: in vitro ADME, Trichoplusia ni; conditions: extract diluted ten-fold, single exponential decay fit, HPLC
Procedure: as §3, §4

[6] = Gut enzyme digestion, S. frugiperda gut extract; type: in vitro ADME, Spodoptera frugiperda; conditions: extract diluted ten-fold, single exponential decay fit, HPLC
Procedure: as §3, §4

H. zea neonates = experiment: Insecticidal activity by foliar spray (lettuce leaf disk feeding); type: in vivo, Helicoverpa zea
Procedure: Organic romaine lettuce was cut into 30‐mm diameter disks and sterilized with a 140‐ppm bleach solution followed by a triple rinse in water. The lettuce disks were then sprayed on either side using a Potter Tower Sprayer (Burkard, Rickmansworth, England) with insecticidal solutions, allowing them to dry between sprays. Once fully sprayed and dried, disks were placed into an arena, which was a 32‐well rearing tray containing 5 mL of 1% w/v agar. One leaf disk was placed in each well and a single neonate H. zea was applied to each of the 12 leaf discs per treatment with four experimental replicates per treatment. The trays were then placed in a 28° C incubator with a 16:8 h light: dark cycle. Mortality was evaluated 4 days after application.

Pieris brassicae = experiment: Field trial on cabbage caterpillar on cabbage; type: in vivo; conditions: spinosad (Laser, 96 g product ha^−1) or Btk alone; two applications 7 days apart; four replicate plots
Procedure: A dose–response of U1‐AGTX‐Ta1b‐QA (Ta1b‐QA) combined with Bacillus thuringiensis subsp. kurstaki (Btk; DiPel DF®, Valent) was performed by Agricola 2000 in a randomized complete block design (RCBD) on cabbage caterpillar (Pieris brassicae L.) on cabbage in Palagiano, Italy with four replicate plots of 1 × 15 m in open‐field containing 25 plants each. Treatments included an untreated check, three rates (22, 34, 45 g AI ha^−1) of an 8.5% w/w spray‐dried sample of Ta1b‐QA together with Btk (DiPel DF®, Valent, 0.5 kg product ha^−1), and the reference standard spinosad (Laser®, Corteva, 96 g product ha^−1). Treatments were applied two times, 7 days apart, with a backpack CO2 sprayer in a spray volume of 800 L ha^−1. […] Data were analyzed by one‐way ANOVA followed by a Tukey HSD LSM test with significance set at P < 0.05 (GraphPad Prism).

CNC(=O)c1cc(Cl)cc(C)c1NC(=O)c1cc(Br)nn1-c1ncccc1Cl [Chlorantraniliprole, chlorantraniliprole]
Insecticidal LD50, injection, H. zea (95% CI) (Helicoverpa zea): 0.22 (0.15–0.37) nmol g^−1
Insecticidal LD50, injection, M. domestica (95% CI) (Musca domestica): no activity

CN1COCN(Cc2cnc(Cl)s2)/C1=N\[N+](=O)[O-] [Thiamethoxam, thiamethoxam]
Insecticidal LD50, injection, H. zea (95% CI) (Helicoverpa zea): 31.9 (20.2–52.1) nmol g^−1
Insecticidal LD50, injection, M. domestica (95% CI) (Musca domestica): 23.2 (18.1–29.6) nmol g^−1

EPDEICAARMTNKEFTYKSNVCNNCGDQVAACEAECFRNDVYTACHEAQKG (disulfide 6-36, 22-32, 25-45) [Mutant R7A]
Degradation half time ratio to Ta1b, Trypsin (bovine trypsin): 0.5
half-life at 10.4 mg mL^-1 [1]: 2.2 h

EPDEICRAAMTNKEFTYKSNVCNNCGDQVAACEAECFRNDVYTACHEAQKG (disulfide 6-36, 22-32, 25-45) [Mutant R9A]
half-life [2]: 4.97 h
Degradation half time ratio to Ta1b, Gut extract [2]: 213
Digestion by bovine trypsin (HPLC) (bovine trypsin; pH 8.8, room temperature, HPLC chromatogram): complete abrogation of Ta1b digestion
Degradation half time ratio to Ta1b, Trypsin (bovine trypsin): >20
half-life at 10.4 mg mL^-1 [1]: > 100 h

EPDEICRAHMTNKEFTYKSNVCNNCGDQVAACEAECFRNDVYTACHEAQKG (disulfide 6-36, 22-32, 25-45) [Mutant R9H]
Fold stability improvement over Ta1b [2]: 16.2

EPDEICRANMTNKEFTYKSNVCNNCGDQVAACEAECFRNDVYTACHEAQKG (disulfide 6-36, 22-32, 25-45) [Mutant R9N]
Fold stability improvement over Ta1b [2]: >50

EPDEICRAQMTNKEFTYKSNVCNNCGDQVAACEAECFRNDVYTACHEAQKG (disulfide 6-36, 22-32, 25-45) [Mutant R9Q]
Degradation half-life in H. zea gut extract [3]: could not be fit to an exponential decay
Degradation half‐lives in gut extracts from H. zea, S. frugiperda, and T. ni [4]: too little degradation to calculate half‐lives even after 21 h
Degradation half-life in T. ni gut extract [5]: could not be fit to an exponential decay
Fold stability improvement over Ta1b [2]: >50
Degradation half-life in S. frugiperda gut extract [6]: could not be fit to an exponential decay

EPDEICRARMPNKEFTYKSNVCNNCGDQVAACEAECFRNDVYTACHEAQKG (disulfide 6-36, 22-32, 25-45) [Mutant T11P]
Fold stability improvement over Ta1b [2]: >50

EPDEICRARMTNAEFTYKSNVCNNCGDQVAACEAECFRNDVYTACHEAQKG (disulfide 6-36, 22-32, 25-45) [Mutant K13A]
Degradation half time ratio to Ta1b, Trypsin (bovine trypsin): 1.0
half-life at 10.4 mg mL^-1 [1]: 4.9 h

EPDEICRARMTNKEFTYASNVCNNCGDQVAACEAECFRNDVYTACHEAQKG (disulfide 6-36, 22-32, 25-45) [Mutant K18A]
Degradation half time ratio to Ta1b, Trypsin (bovine trypsin): 4.1
half-life at 10.4 mg mL^-1 [1]: 19.9 h

EPDEICRARMTNKEFTYKSNVCNNCGDQVAACEAECFANDVYTACHEAQKG (disulfide 6-36, 22-32, 25-45) [Mutant R38A]
half-life [2]: 0.215 h
Degradation half time ratio to Ta1b, Gut extract [2]: 9.2
Degradation half time ratio to Ta1b, Trypsin (bovine trypsin): 6.5
half-life at 10.4 mg mL^-1 [1]: 31 h

EPDEICRNRMTNKEFTYKSNVCNNCGDQVAACEAECFRNDVYTACHEAQKG (disulfide 6-36, 22-32, 25-45) [Mutant A8N]
Fold stability improvement over Ta1b [2]: 1.8

EPDEICRSRMTNKEFTYKSNVCNNCGDQVAACEAECFRNDVYTACHEAQKG (disulfide 6-36, 22-32, 25-45) [Mutant A8S]
Fold stability improvement over Ta1b [2]: 12.1

GSQYCVPVDQPCSLNTQPCCDDATCTQERNENGHTVYYCRA (disulfide 5-20, 12-25, 19-39) [GS‐ω/κ, reference compound]
Day 4 mortality of H. zea on treated lettuce leaves, peptide alone (H. zea neonates; 100 μg cm^−2, neonates, compared to untreated): significant activity on its own
Day 4 mortality of H. zea on treated lettuce leaves, peptide in combination with Btk (H. zea neonates; 100 μg cm^−2 peptide with sublethal Btk 0.17 μg cm^−2, neonates): activity is increased
Insecticidal LD50, injection, H. zea (95% CI) (Helicoverpa zea): 5.9 (4.9–6.9) nmol g^−1
Insecticidal LD50, injection, M. domestica (95% CI) (Musca domestica): 0.19 (0.17–0.21) nmol g^−1
Degradation when incubated with gut extract (HPLC) ([2]; M. sexta gut extract, HPLC peak): did not show any degradation

H-ICRAQMTNKEFTYKSNVCNNCGDQVAACEAECFRNDVYAACHEAQKG-OH (disulfide 2-32, 18-28, 21-41)
Reduction in melting temperature vs Ta1b-QA: 14.2 °C

spinosad
Mean % control of larvae relative to the untreated check, comparators (Pieris brassicae): 57.8%
Insecticidal LD50, injection, H. zea (95% CI) (Helicoverpa zea): 0.20 (0.14–0.31) nmol g^−1
Insecticidal LD50, injection, M. domestica (95% CI) (Musca domestica): 1.5 (0.9–2.4) nmol g^−1
